# Measurements published in the supplement of paper PMC6965134.
# ± gives the standard deviation of the averaged measurements.
# Experiment: TIMS collisional cross section (CCS, N2) of the lipid ion; higher = larger ion cross section
# Details: ionization mode: positive, one isomer drawn
Structure (SMILES),TIMS collisional cross section (sample type: HeLa),TIMS collisional cross section (sample type: Liver),TIMS collisional cross section (sample type: plasma)
CC/C=C\C/C=C\C/C=C\C/C=C\C/C=C\C/C=C\CCC(=O)OC[C@@H](COC(=O)CCCCCCC/C=C\C/C=C\CCCCC)OC(=O)CCC/C=C\C/C=C\C/C=C\C/C=C\CCCCC [TG 18:2_20:4_22:6] (ion (formula + adduct): [C63H98O6+NH4] 1+),–,330.4 Å²,–
CCCCCC/C=C\CCCCCCCC(=O)OC[C@H](CO)OC(=O)CCCCCCC/C=C\CCCCCCCC [DG 16:1_18:1_0:0] (ion (formula + adduct): [C37H68O5+NH4] 1+),–,260 Å²,258.75 ± 1.2 Å²
CCCCCCCC/C=C\CCCCCCCCCC(=O)O[C@H](COC(=O)CCCCCCC/C=C\CCCCCCCC)COP(=O)(O)OCCN [PE 18:1@_20:1] (ion (formula + adduct): [C43H82NO8P+H] 1+),286.2 Å²,–,–
CCCCCCCC/C=C\CCCCCCCCCC(=O)OC[C@@H](COC(=O)CCCCCCCCCCCCCCC)OC(=O)CCCCCCC/C=C\CCCCCCCC [TG 16:0_18:1_20:1] (ion (formula + adduct): [C57H106O6+NH4] 1+),328.4 Å²,–,–
CCCCCCCC/C=C\CCCCCCCC(=O)O[C@H](COC(=O)CCCCCCCCCCCCCCC)COP(=O)(O)OCCN [PE 16:0_18:1] (ion (formula + adduct): [C39H76NO8P+H] 1+),275.3 Å²,–,–
CC/C=C\C/C=C\C/C=C\C/C=C\C/C=C\CCCC(=O)O[C@H](COC(=O)CCCCCCC/C=C\CCCCCC)COP(=O)(O)OCCN [PE 16:1_20:5@] (ion (formula + adduct): [C41H70NO8P+H] 1+),269.8 Å²,269.8 Å²,–
CCCCC/C=C\C/C=C\C/C=C\C/C=C\CCCC(=O)O[C@@H](CO)COC(=O)CCCCCCC/C=C\C/C=C\CCCCC [DG 18:2_20:4_0:0] (ion (formula + adduct): [C41H68O5+NH4] 1+),–,261.1 Å²,261.6 Å²
CC/C=C\C/C=C\C/C=C\C/C=C\C/C=C\CCCC(=O)OC[C@@H](O)COP(=O)([O-])OCC[N+](C)(C)C [LPC 20:5_0:0] (ion (formula + adduct): [C28H48NO7P+H] 1+),–,–,226.4 Å²
CCCCC/C=C\C/C=C\CCCCCCCC(=O)OC[C@H](CO)OC(=O)CCCCCCCCCCCCCCCCCCCCC [DG 18:2_22:0_0:0] (ion (formula + adduct): [C43H80O5+NH4] 1+),–,279.2 Å²,–
CCCCC/C=C\C/C=C\C/C=C\C/C=C\CCCCCC(=O)O[C@H](COCCCCCCCCCCCCCCCCCC)COP(=O)([O-])OCC[N+](C)(C)C [PC O- 18:0@_22:4] (ion (formula + adduct): [C48H90NO7P+H] 1+),301.9 Å²,–,–
CCCCCC/C=C\CCCCCCCC(=O)OC[C@H](COC(=O)CCCCCCCCCCCCCCCCCCCCC)OC(=O)CCCCCCCCCCCCCCCCC [TG 16:1_18:0_22:0] (ion (formula + adduct): [C59H112O6+NH4] 1+),–,–,335.9 Å²
CCCC/C=C\CCCCCCCC(=O)OC[C@H](COC(=O)CCCCCCC/C=C\CCCCCCCC)OC(=O)CCCCCCC/C=C\CCCCCC [TG 14:1_16:1_18:1] (ion (formula + adduct): [C51H92O6+NH4] 1+),307.85 ± 1.2 Å²,307.7 Å²,307 Å²
CC/C=C\C/C=C\C/C=C\C/C=C\C/C=C\CCCC(=O)O[C@H](COC(=O)CCCCCCC/C=C\C/C=C\CCCCC)COP(=O)([O-])OCC[N+](C)(C)C [PC 18:2@_20:5] (ion (formula + adduct): [C46H78NO8P+H] 1+),286.6 Å²,–,287 Å²
CCCCC/C=C\C/C=C\C/C=C\C/C=C\C/C=C\CCC(=O)O[C@H](COC(=O)CCCCCCCCCCCCCCC)COP(=O)([O-])OCC[N+](C)(C)C [PC 16:0_22:5@] (ion (formula + adduct): [C46H82NO8P+H] 1+),–,292.7 Å²,–
CCCCCC/C=C\CCCCCCCCCC(=O)O[C@H](CO)COP(=O)(O)OCCN [LPE 18:1] (ion (formula + adduct): [C23H46NO7P+H] 1+),218.1 Å²,215.4 Å²,–
CCCCCC/C=C\CCCCCCCC(=O)O[C@H](COC(=O)CCCCCCCCCCCCC)COP(=O)([O-])OCC[N+](C)(C)C [PC 14:0_16:1@] (ion (formula + adduct): [C38H74NO8P+H] 1+),276.5 Å²,–,–
CCCCC/C=C\CCCCCCCC(=O)OC[C@H](COC(=O)CCCCCCCCCCCCCCCC)OC(=O)CCCCCCC/C=C\CCCCCC [TG 15:1_16:1_17:0] (ion (formula + adduct): [C51H94O6+NH4] 1+),–,309.9 Å²,–

# The remaining lines, values ahead:
TIMS collisional cross section (sample type: HeLa),TIMS collisional cross section (sample type: Liver),TIMS collisional cross section (sample type: plasma),Structure (SMILES)
339.3 Å²,–,–,CCCCCCCC/C=C\CCCCCCCCCCCC(=O)OC[C@@H](COC(=O)CCCCCCCCCCCCCCCCC)OC(=O)CCCCCCC/C=C\CCCCCCCC [TG 18:0_18:1_22:1] (ion (formula + adduct): [C61H114O6+NH4] 1+)
290.7 Å²,–,–,CCCCCCCC/C=C\CCCCCCCC(=O)O[C@H](COCCCCCCCCCCCCCCCC)COP(=O)([O-])OCC[N+](C)(C)C [PC O- 16:0@_18:1] (ion (formula + adduct): [C42H84NO7P+H] 1+)
–,314.3 Å²,–,CC/C=C\C/C=C\C/C=C\C/C=C\CCCCC(=O)OC[C@@H](COC(=O)CCCCCCC/C=C\C/C=C\CCCCC)OC(=O)CCCC/C=C\C/C=C\C/C=C\CCCCC [TG 18:2_18:3_18:4] (ion (formula + adduct): [C57H92O6+NH4] 1+)
–,322.1 Å²,–,CC/C=C\C/C=C\C/C=C\C/C=C\C/C=C\C/C=C\CCC(=O)OC[C@@H](COC(=O)CCCCCCCCCCCCCCC)OC(=O)CCCC/C=C\C/C=C\C/C=C\C/C=C\CC [TG 16:0_18:4_22:6] (ion (formula + adduct): [C59H94O6+NH4] 1+)
276.3 Å²,–,–,CCCCCCCC/C=C\CCCCCCCCCCCC(=O)O[C@@H](CO)COC(=O)CCCCCCCCCCCCCCC [DG 16:0_22:1_0:0] (ion (formula + adduct): [C41H78O5+NH4] 1+)
–,–,301.7 Å²,CCCCC/C=C\C/C=C\C/C=C\CCCCCCC(=O)O[C@H](COC(=O)CCCCCCCCC/C=C\CCCCCCCC)COP(=O)([O-])OCC[N+](C)(C)C [PC 20:1@_20:3] (ion (formula + adduct): [C48H88NO8P+H] 1+)
267.4 Å²,–,–,CCCCCCCCCCCCCCCC(=O)OC[C@H](COP(=O)(O)OCCN)OC(=O)CCCCCCCCCCCCC [PE 16:0_14:0@] (ion (formula + adduct): [C35H70NO8P+H] 1+)
279.1 Å²,–,–,CC/C=C\C/C=C\C/C=C\C/C=C\C/C=C\CCCC(=O)O[C@H](COC(=O)CCC/C=C\C/C=C\C/C=C\C/C=C\CCCCC)COP(=O)(O)OCCN [PE 20:4_20:5] (ion (formula + adduct): [C45H72NO8P+H] 1+)
–,–,313.2 Å²,CCCCCC/C=C\CCCCCCCC(=O)O[C@@H](COC(=O)CCCCCCC/C=C\CCCCCCC)COC(=O)CCCCCCCCCCCCCCC [TG 16:0_16:1_17:1] (ion (formula + adduct): [C52H96O6+NH4] 1+)
–,281 Å²,280.9 Å²,CCCCC/C=C\C/C=C\CCCCCCCC(=O)O[C@H](COC(=O)CCCCCCCCCCCCCC)COP(=O)([O-])OCC[N+](C)(C)C [PC 15:0@_18:2] (ion (formula + adduct): [C41H78NO8P+H] 1+)
279.2 ± 0.71 Å²,–,–,CCCCCCCC/C=C/CCCCCCCC(=O)OC[C@H](COP(=O)(O)OCCN)OC(=O)CCCCCCC/C=C/CCCCCCCC [PE 18:1_18:1] (ion (formula + adduct): [C41H78NO8P+H] 1+)
–,–,351 Å²,CCCCC/C=C\C/C=C\CCCCCCCCCCCC(=O)OC[C@@H](COC(=O)CCCCCCCCCCCCCCCCC)OC(=O)CCCCCCCCCCCCCCCCCCCCC [TG 18:0_22:0_22:2] (ion (formula + adduct): [C65H122O6+NH4] 1+)
–,207.8 Å²,207.4 Å²,CCCCCC/C=C\CCCCCCCC(=O)OC[C@@H](O)COP(=O)(O)OCCN [LPE 16:1] (ion (formula + adduct): [C21H42NO7P+H] 1+)
286.4 Å²,286.2 Å²,–,CCCCCCCCCCCCCCCCCC(=O)OC[C@H](COP(=O)(O)OCCN)OC(=O)CCCCCCCCCCCCCCCCC [PE 18:0_18:0] (ion (formula + adduct): [C41H82NO8P+Na] 1+)
–,282.7 Å²,–,CCCCCCCCCCCCC(=O)OC[C@@H](COC(=O)CCCCCCCCCCC)OC(=O)CCCCCCCCCCCC [TG 12:0_13:0_13:0] (ion (formula + adduct): [C41H78O6+NH4] 1+)
333.1 Å²,333.4 Å²,–,CC/C=C\C/C=C\C/C=C\C/C=C\C/C=C\C/C=C\CCC(=O)OC[C@@H](COC(=O)CCCCCCCCCCCCCCCCC)OC(=O)CCCCCCC/C=C\CCCCCCCC [TG 18:0_18:1_22:6] (ion (formula + adduct): [C61H104O6+NH4] 1+)
304.6 Å²,–,–,CCCCCCCCCCCCCCCCC(=O)OC[C@@H](COC(=O)CCCCCCCCCCCCC)OC(=O)CCCCCCCCCCCCC [TG 14:0_14:0_17:0] (ion (formula + adduct): [C48H92O6+NH4] 1+)
–,293.2 Å²,–,CCCCC/C=C\C/C=C\C/C=C\CCCCCCC(=O)O[C@H](COC(=O)CCCC/C=C\C/C=C\C/C=C\CCCCC)COP(=O)([O-])OCC[N+](C)(C)C [PC 18:3_20:3@] (ion (formula + adduct): [C46H80NO8P+H] 1+)
341.8 Å²,342 Å²,341.9 Å²,CCCCCCCC/C=C\CCCCCCCC(=O)O[C@H](COC(=O)CCCCCCCCCCCCCCCCC)COC(=O)CCCCCCCCCCCCCCCCCCCCC [TG 18:0_18:1_22:0] (ion (formula + adduct): [C61H116O6+NH4] 1+)
